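1) Cells in 96-well plates. 2) Compound, 48 h, 5 concentrations. 3) Linear interpolation between surrounding doses. 4) Unreached endpoint = highest concentration. TGI: total growth inhibition.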
What was measured:
Test in all cases: NCI-60 cell line screen, 48 h
UACC-257 melanoma = system: UACC-257 melanoma
SF-539 CNS = system: SF-539 CNS
UO-31 renal = system: UO-31 renal
SNB-19 CNS = system: SNB-19 CNS
SK-MEL-28 melanoma = system: SK-MEL-28 melanoma
NCI-H226 lung = system: NCI-H226 lung
MDA-MB-435 = system: MDA-MB-435
SF-268 CNS = system: SF-268 CNS
HS 578T breast = system: HS 578T breast
NCI-H460 lung = system: NCI-H460 lung
KM12 colon = system: KM12 colon
IGROV1 ovarian = system: IGROV1 ovarian
HT29 colon = system: HT29 colon
786-0 renal = system: 786-0 renal
CCRF-CEM leukemia = system: CCRF-CEM leukemia
HOP-62 NSCLC = system: HOP-62 NSCLC
OVCAR-4 ovarian = system: OVCAR-4 ovarian
OVCAR-8 ovarian = system: OVCAR-8 ovarian
SN12C renal = system: SN12C renal
OVCAR-5 ovarian = system: OVCAR-5 ovarian
SNB-75 CNS = system: SNB-75 CNS
OVCAR-3 ovarian = system: OVCAR-3 ovarian
HL-60(TB) leukemia = system: HL-60(TB) leukemia
SR leukemia = system: SR leukemia
PC-3 prostate = system: PC-3 prostate
MDA-MB-231 breast = system: MDA-MB-231 breast
HCT-15 colon = system: HCT-15 colon
K-562 leukemia = system: K-562 leukemia
T-47D breast = system: T-47D breast
SK-MEL-5 melanoma = system: SK-MEL-5 melanoma
EKVX NSCLC = system: EKVX NSCLC
DU-145 prostate = system: DU-145 prostate
M14 melanoma = system: M14 melanoma
HOP-92 NSCLC = system: HOP-92 NSCLC
A549 NSCLC = system: A549 NSCLC
LOX IMVI melanoma = system: LOX IMVI melanoma
SF-295 CNS = system: SF-295 CNS
SK-OV-3 ovarian = system: SK-OV-3 ovarian
UACC-62 melanoma = system: UACC-62 melanoma
NCI-H522 lung = system: NCI-H522 lung
MCF7 breast = system: MCF7 breast
SK-MEL-2 melanoma = system: SK-MEL-2 melanoma
BT-549 breast = system: BT-549 breast
MDA-N = system: MDA-N
RXF 393 renal = system: RXF 393 renal
U251 CNS = system: U251 CNS
NCI-H23 lung = system: NCI-H23 lung
TK-10 renal = system: TK-10 renal
COLO 205 colon = system: COLO 205 colon
SW-620 colon = system: SW-620 colon
MALME-3M melanoma = system: MALME-3M melanoma
CAKI-1 renal = system: CAKI-1 renal
ACHN renal = system: ACHN renal
HCT-116 colon = system: HCT-116 colon
HCC-2998 colon = system: HCC-2998 colon
NCI/ADR-RES ovarian = system: NCI/ADR-RES ovarian
A498 renal = system: A498 renal
RPMI-8226 leukemia = system: RPMI-8226 leukemia
MOLT-4 leukemia = system: MOLT-4 leukemia

CCC1(CC)N=C(C(F)(F)F)c2cc(C(=O)C(F)(F)F)c3ccccc3c2N1 gave a TGI (UACC-257 melanoma) of 33.9 µM, a TGI (SF-539 CNS) of 31.8 µM and a TGI (UO-31 renal) of 16.9 µM. The TGI (SNB-19 CNS) was > 100 µM, the TGI (SK-MEL-28 melanoma) was 52.2 µM and the TGI (NCI-H226 lung) was 20.9 µM. The TGI (MDA-MB-435) was > 100 µM, the TGI (SF-268 CNS) was 27 µM and the TGI (HS 578T breast) was 32.2 µM. For the same compound, the TGI (NCI-H460 lung) was 24.1 µM, the TGI (KM12 colon) was > 100 µM and the TGI (IGROV1 ovarian) was 23 µM. For the same compound, the TGI (HT29 colon) was 81.4 µM, the TGI (786-0 renal) was 13.7 µM and the TGI (CCRF-CEM leukemia) was 31.1 µM. For the same compound, the TGI (HOP-62 NSCLC) was 28.5 µM, the TGI (OVCAR-4 ovarian) was > 100 µM and the TGI (OVCAR-8 ovarian) was > 100 µM. For the same compound, the TGI (SN12C renal) was 13.7 µM, the TGI (OVCAR-5 ovarian) was 58.1 µM and the TGI (SNB-75 CNS) was 23 µM. The TGI (OVCAR-3 ovarian) was 8.58 µM, the TGI (HL-60(TB) leukemia) was 8.25 µM and the TGI (SR leukemia) was 9.36 µM. The TGI (PC-3 prostate) was > 100 µM, the TGI (MDA-MB-231 breast) was 12.3 µM and the TGI (HCT-15 colon) was > 100 µM. For the same compound, the TGI (K-562 leukemia) was > 100 µM, the TGI (T-47D breast) was 15.2 µM and the TGI (SK-MEL-5 melanoma) was 11.4 µM. For the same compound, the TGI (EKVX NSCLC) was 64.2 µM, the TGI (DU-145 prostate) was 21.5 µM and the TGI (M14 melanoma) was 25.3 µM. It also gave a TGI (HOP-92 NSCLC) of 10.2 µM, a TGI (A549 NSCLC) of 60.7 µM and a TGI (LOX IMVI melanoma) of 13.7 µM. The TGI (SF-295 CNS) was 9.6 µM, the TGI (SK-OV-3 ovarian) was 49.7 µM and the TGI (UACC-62 melanoma) was 13.3 µM. The TGI (NCI-H522 lung) was 11.1 µM, the TGI (MCF7 breast) was 27.4 µM and the TGI (SK-MEL-2 melanoma) was 10.4 µM. The TGI (BT-549 breast) was 29 µM, the TGI (MDA-N) was 15.7 µM and the TGI (RXF 393 renal) was 9.87 µM. The TGI (U251 CNS) was 23.6 µM, the TGI (NCI-H23 lung) was 11.2 µM and the TGI (TK-10 renal) was 61.3 µM. For the same compound, the TGI (COLO 205 colon) was 28.4 µM, the TGI (SW-620 colon) was > 100 µM and the TGI (MALME-3M melanoma) was 57.3 µM. The TGI (CAKI-1 renal) was > 100 µM, the TGI (ACHN renal) was > 100 µM and the TGI (HCT-116 colon) was 16.1 µM. The TGI (HCC-2998 colon) was 15.3 µM, the TGI (NCI/ADR-RES ovarian) was 42.1 µM and the TGI (A498 renal) was 35.3 µM.
In the case of COc1ccc2c(c1)C(OC)C1c3c(cc4c(c3-2)OCO4)CCN1C (stereo not given), the TGI (UACC-257 melanoma) is reported as 13 µM, the TGI (SF-539 CNS) is reported as 8.38 µM and the TGI (UO-31 renal) is reported as 4.59 µM. For the same compound, the TGI (SNB-19 CNS) was 19.3 µM, the TGI (SK-MEL-28 melanoma) was 19.8 µM and the TGI (NCI-H226 lung) was 9.09 µM. For the same compound, the TGI (MDA-MB-435) was 13.1 µM, the TGI (SF-268 CNS) was 20.2 µM and the TGI (HS 578T breast) was 5.35 µM. For the same compound, the TGI (NCI-H460 lung) was 8.83 µM, the TGI (KM12 colon) was 18.6 µM and the TGI (IGROV1 ovarian) was 14.8 µM. For the same compound, the TGI (HT29 colon) was 14.1 µM, the TGI (786-0 renal) was > 40.9 µM and the TGI (HOP-62 NSCLC) was 8.34 µM. It also gave a TGI (OVCAR-4 ovarian) of 10.3 µM, a TGI (OVCAR-8 ovarian) of 13.9 µM and a TGI (SN12C renal) of 12.1 µM. The TGI (OVCAR-5 ovarian) was 16.8 µM, the TGI (SNB-75 CNS) was 15.6 µM and the TGI (OVCAR-3 ovarian) was 25.1 µM. The TGI (RPMI-8226 leukemia) was 20.6 µM, the TGI (HL-60(TB) leukemia) was > 20.6 µM and the TGI (SR leukemia) was > 42.3 µM. It also gave a TGI (PC-3 prostate) of 9.34 µM, a TGI (MDA-MB-231 breast) of 9.59 µM and a TGI (HCT-15 colon) of 10.2 µM. For the same compound, the TGI (K-562 leukemia) was > 57.3 µM, the TGI (T-47D breast) was > 63.7 µM and the TGI (SK-MEL-5 melanoma) was 5.17 µM. For the same compound, the TGI (EKVX NSCLC) was 24.3 µM, the TGI (DU-145 prostate) was > 52 µM and the TGI (M14 melanoma) was 7.84 µM. For the same compound, the TGI (HOP-92 NSCLC) was 11.8 µM, the TGI (A549 NSCLC) was 9.87 µM and the TGI (MOLT-4 leukemia) was > 51.7 µM. For the same compound, the TGI (LOX IMVI melanoma) was > 32 µM, the TGI (SF-295 CNS) was 11.7 µM and the TGI (SK-OV-3 ovarian) was 23.1 µM. For the same compound, the TGI (UACC-62 melanoma) was 5.08 µM, the TGI (NCI-H522 lung) was 6.23 µM and the TGI (MCF7 breast) was 8.13 µM. The TGI (SK-MEL-2 melanoma) was 7.9 µM, the TGI (BT-549 breast) was 8.48 µM and the TGI (MDA-N) was 12 µM. For the same compound, the TGI (RXF 393 renal) was 6.43 µM, the TGI (U251 CNS) was 18.9 µM and the TGI (NCI-H23 lung) was 11.1 µM. For the same compound, the TGI (TK-10 renal) was > 63.8 µM, the TGI (COLO 205 colon) was > 43.6 µM and the TGI (SW-620 colon) was 18.7 µM. It also gave a TGI (MALME-3M melanoma) of 3.97 µM, a TGI (CAKI-1 renal) of 7.32 µM and a TGI (ACHN renal) of 8.03 µM. For the same compound, the TGI (HCT-116 colon) was > 71.7 µM, the TGI (HCC-2998 colon) was 14.3 µM and the TGI (NCI/ADR-RES ovarian) was 7.45 µM. For the same compound, the TGI (A498 renal) was 4.96 µM.

From PubChem BioAssay (NCI)
